Test results: PMC6973011, “Stafia‐1: a STAT5a‐Selective Inhibitor Developed via Docking‐Based Screening of in Silico O‐Phosphorylated Fragments” (Chemistry (Weinheim an Der Bergstrasse, Germany), 2019)
Numbering of substitutions follows the chain as printed.

Assays:
Format in all cases: binding
[1] = target: T1, STAT5b Arg566Trp/Met644Lys (Homo sapiens, UniProt P51692, M644K/R566W); assay: Fluorescence polarization assay, double mutant STAT5b Arg566Trp/Met644Lys; conditions: FP assay
T1 construct: made in house
T1 sequence (P51692 1-787 R566W/M644K): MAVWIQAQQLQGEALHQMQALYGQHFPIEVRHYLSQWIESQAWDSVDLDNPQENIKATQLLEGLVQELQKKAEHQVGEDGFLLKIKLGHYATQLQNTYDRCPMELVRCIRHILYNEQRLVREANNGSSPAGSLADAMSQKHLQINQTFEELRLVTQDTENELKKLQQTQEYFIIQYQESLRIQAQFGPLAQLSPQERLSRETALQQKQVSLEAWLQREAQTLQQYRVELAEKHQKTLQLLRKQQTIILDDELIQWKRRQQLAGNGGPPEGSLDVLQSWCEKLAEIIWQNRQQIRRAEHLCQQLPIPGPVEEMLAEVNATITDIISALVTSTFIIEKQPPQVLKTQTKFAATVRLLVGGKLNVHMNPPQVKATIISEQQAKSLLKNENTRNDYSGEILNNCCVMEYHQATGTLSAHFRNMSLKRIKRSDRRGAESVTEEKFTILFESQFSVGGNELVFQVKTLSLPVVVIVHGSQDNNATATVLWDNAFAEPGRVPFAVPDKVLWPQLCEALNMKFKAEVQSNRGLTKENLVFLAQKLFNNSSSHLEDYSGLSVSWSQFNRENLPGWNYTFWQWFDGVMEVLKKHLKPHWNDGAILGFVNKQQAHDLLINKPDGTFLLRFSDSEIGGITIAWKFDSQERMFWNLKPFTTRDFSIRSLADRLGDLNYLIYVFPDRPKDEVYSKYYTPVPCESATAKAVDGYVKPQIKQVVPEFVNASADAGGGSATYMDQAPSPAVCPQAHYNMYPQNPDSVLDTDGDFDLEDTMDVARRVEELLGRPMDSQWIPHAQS

STAT5b Arg566Trp = target: T2, STAT5b Arg566Trp (Homo sapiens, UniProt P51692, R566W); assay: Fluorescence polarization assay, point mutant STAT5b Arg566Trp; conditions: FP assay
T2 construct: made in house
T2 sequence (P51692 1-787 R566W): T1 sequence (P51692 1-787 R566W/M644K) with K644M

STAT5a Trp566Arg = target: T3, STAT5a Trp566Arg (Homo sapiens, UniProt P42229, W566R); assay: Fluorescence polarization assay, point mutant STAT5a Trp566Arg
T3 construct: made in house
T3 sequence (P42229 1-794 W566R): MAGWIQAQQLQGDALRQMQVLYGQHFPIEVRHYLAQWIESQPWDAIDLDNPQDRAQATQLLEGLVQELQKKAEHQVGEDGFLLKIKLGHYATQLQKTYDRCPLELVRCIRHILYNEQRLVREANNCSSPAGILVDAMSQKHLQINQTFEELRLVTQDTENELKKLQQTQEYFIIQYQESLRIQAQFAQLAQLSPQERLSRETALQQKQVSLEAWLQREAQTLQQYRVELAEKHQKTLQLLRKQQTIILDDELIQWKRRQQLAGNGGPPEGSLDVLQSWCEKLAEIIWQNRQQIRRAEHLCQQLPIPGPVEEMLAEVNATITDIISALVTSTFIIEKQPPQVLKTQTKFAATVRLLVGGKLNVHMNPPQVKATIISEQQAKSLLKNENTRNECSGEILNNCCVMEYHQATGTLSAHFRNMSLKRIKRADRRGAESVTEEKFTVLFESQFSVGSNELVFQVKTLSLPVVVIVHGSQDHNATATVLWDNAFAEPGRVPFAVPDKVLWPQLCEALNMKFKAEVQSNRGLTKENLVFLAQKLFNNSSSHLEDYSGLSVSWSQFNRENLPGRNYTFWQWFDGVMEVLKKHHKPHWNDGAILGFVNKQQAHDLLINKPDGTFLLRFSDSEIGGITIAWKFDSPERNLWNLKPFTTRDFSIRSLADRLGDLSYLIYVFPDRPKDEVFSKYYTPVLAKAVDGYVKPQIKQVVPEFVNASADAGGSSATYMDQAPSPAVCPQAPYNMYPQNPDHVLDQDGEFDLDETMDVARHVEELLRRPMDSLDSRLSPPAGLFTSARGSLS

[2] = FP assay, double-purified protein

For `COc1cc(-c2cc(OP(=O)(O)O)cc(-c3cc(OC)c(OC)c(OC)c3)c2)cc(OC)c1OC` [Compound 20], which IC50 [1] is on record?
The IC50 was 128 ± 8 µM.

What about the Ki [1] of the same compound?
The Ki was 63.1 ± 4.2 µM.

What about the inhibition at 200 µM (STAT5b Arg566Trp) of the same compound?
Its inhibition at 200 µM is 43 ± 7%.

What about the IC50 (STAT5a Trp566Arg; [2]) of the same compound?
Its IC50 is 155 ± 15 µM.

What about the Ki (STAT5a Trp566Arg; [2]) of the same compound?
The Ki was 74 ± 7 µM.

What about the “reduction of activity against STAT5a Trp566Arg as compared to wild-type STAT5a” value (STAT5a Trp566Arg; FP assays) of the same compound?
The value was 7 fold.
